Columns and labels:
mitochondrial complex 1 = assay: Maintenance of mitochondrial Complex 1 activity in 6-hydroxydopamine-treated SH-SY5Y cells; format: cell-based, human; details: compound 1 μM, 24 h before 50 μM 6-hydroxydopamine, 6 h; compared with control (FIG. 13)
Procedure: In this example, the effect of compounds 1, 5, and 8 in maintaining the activity of mitochondrial complex 1 was examined.
6-Hydroxydopamine induces oxidative stress by degrading the enzymic activity of Complex 1 and thereby causing a functional disorder. It is considered that the compounds identified here would suppress neuronal death due to oxidative stress by preventing deactivation of complex 1. Therefore, changes in activity of complex 1 resulting from addition of the compound was measured.
SH-SY5Y human neurons were plated onto a 10 cm dish and cultured to 80% confluency. Compounds 1, 5, and 8 individually were added at the compound concentration of 1 μM, or sterile water was added. 24 hours after the addition of the compound or sterile water, 6-hydroxydopamine (PBS solvent) was added at a 6-hydroxydopamine concentration of 50 μM, or the same amount of PBS (containing no 6-hydroxydopamine) was added. 6 hours after the addition of 6-hydroxydopamine, the cells were collected. […] After quantifying the protein, 100 μg of the mitochondrial protein was added to a cuvette filled with a reaction buffer, and the total amount was made up to 480 μL. After incubation at 37° C. for 3 minutes, 20 μL of 5 mM NADH was added to the cuvette, and decrease in absorbance at 340 nm was monitored for 4 minutes using an absorptiometer. […]

DJ-1 protein [1] = molecular target: T1, DJ-1 protein (Homo sapiens, UniProt Q99497); assay: Binding to DJ-1 protein by AffinixQ quartz oscillator frequency change; details: compound fixed on sensor chip; DJ-1 protein vs BSA added (FIG. 11)
T1 sequence (Q99497 1-189): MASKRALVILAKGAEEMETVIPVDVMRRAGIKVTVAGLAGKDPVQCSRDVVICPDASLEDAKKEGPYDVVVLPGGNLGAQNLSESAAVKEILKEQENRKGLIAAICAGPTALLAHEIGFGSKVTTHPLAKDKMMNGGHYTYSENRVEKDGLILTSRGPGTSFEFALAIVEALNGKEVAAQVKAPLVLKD
From the text: The AffinixQ is an instrument for quantifying interaction between biomolecules at the order of nanograms by changes in frequency of the crystal oscillator. It utilizes the proportional relationship between change in frequency of the quartz oscillator and the weight of the adherings on the surface of the quartz oscillator.
The compound was fixed on top of the sensor chip, which is the oscillator, using an amino coupling reagent. The sensor chip onto which the compound had been fixed was immersed in a measurement vessel filled with 8 mL of PBS (phosphate buffer), and held until the frequency became constant. Following this, 8 μL of 1 mg/mL DJ-1 protein or BSA (bovine serum albumin) was added to the measurement vessel.

DJ-1 protein [2] = molecular target: T1, DJ-1 protein; assay: Suppression of transition of DJ-1 to oxidized form (H2O2 treatment, isoelectric focusing); format: biochemical; details: 0.2 mM or 2 mM H2O2, room temperature 1 hour; isoelectric focusing (FIG. 12)
Procedure: In this example, it was confirmed that compound 1 and compound 5 suppressed the transition of DJ-1 to an oxidized form.
0.5 mg of purified DJ-1 protein was dissolved in 1 mL of PBS. 10 μL of 1 mM compound 1, 5, or 7 was added to 500 μL of this DJ-1 protein solution, and rotated at 4° C. for 1 hour. Subsequently, 0.4 or 4 mM hydrogen peroxide (H2O2) was added thereto, the mixture was allowed to stand at room temperature for 1 hour then the hydrogen peroxide concentration became 0.2 mM or 2 mM. Further, dialysis was carried out 3 times with PBS for a total of 4.5 hours, followed by an isoelectric focusing 0.5 μg of the DJ-1 protein . The reagents used in the isoelectric focusing were as follows. • Gel solution for isoelectric focusing: 9.2 M Urea, 2% NP-40, 4% acrylamide, 1% Ampholine (pH 5-8; Amersham Bioscience), 1% Ampholine (pH 3-10; Amersham Bioscience) • Sample Buffer: 5 M Urea, 2 M ThioUrea, 2% NP-40, 5% Glycerin, 5% 2-mercaptoethanol, 1.6% Ampholine (pH 5-8), 0.4% Ampholine (pH 3.5-10) • Protection solution: 8 M Urea, 0.8% Ampholine (pH 5-8), 0.2% • Ampholine (pH 3.5-10) • Electrophoresis Buffer+electrode: 0.02 M Phosphoric acid • −electrode: 0.02 M NaOH • Towbin: 25 mM Tris, 192 mM Glycine

dopamine neurons = assay: TH staining of dopamine neurons in rat midbrain substantia nigra after 6-OHDA injection; format: in vivo; details: 1 mM compound injected simultaneously with 6 mM 6-OHDA (FIG. 16)
Procedure: The midbrain substantia nigra (SNpc) was dissected out and fixed in a 100 mM phosphate buffer containing 4% of paraformaldehyde for 2 days, and then submerged in 100 mM phosphate buffer (containing 15% of sucrose and 0.1% of sodium azide). A 20 μm thick slices were prepared using Cryostat, and submerged in a 100 mM phosphate buffer containing 0.3% Triton X-100 (PBS-T).
These brain slices were reacted with anti-tyrosine hydroxylase (TH: a dopamine-biosynthetic enzyme and marker for dopamine neurons, manufactured by Sigma, 1:20,000 dilution) at 4° C. for 3 days, then washed, and reacted with a biotinylated anti-mouse IgG antibody (1:2,000 dilution) at room temperature for 2 hours. Subsequently, avidin peroxidase coloration was carried out using an ABC kit (Vector Laboratories) at room temperature for 1 hour. After washing several times with PBS-T, coloration was carried out by nickel ammonium-containing 3,3′-diaminobenzidine (DAB).
In the left substantia nigra into which only 6-OHDA was injected, TH staining was not observed and thus dopaminergic neuron death was observed. In the right substantia nigra, which was not injected with 6-OHDA, live dopamine neurons were observed (FIG. 16 (1)).

SH-SY5Y human neurons = assay: Suppression of 6-hydroxydopamine-induced cell death of SH-SY5Y human neurons (Cell Counting Kit-8 / MTT assay); format: cell-based; details: compound 1 μM, 24 h before 100 μM 6-hydroxydopamine, 40 h; compared with control (FIG. 9)
Procedure: In this example, the effect of compounds 1 to 8 in suppressing cell death of SH-SY5Y human neurons was examined.
SH-SY5Y human neurons ([…], USA) were plated on a 96-well plate, and cultured to 80% confluency.
Compounds 1 to 8 in sterile aqueous solutions were individually added thereto at a sample concentration of 1 μM, or sterile water was added as a control.
24 hours after the addition of compounds 1 to 8 or sterile water, 6-hydroxydopamine (PBS solvent) (Wako Pure Chemical Industries, Ltd.) was added to each at a 6-hydroxydopamine concentration of 100 μM, or the same amount of PBS (containing no 6-hydroxydopamine) was added. Furthermore, 40 hours after the addition of 6-hydroxydopamine, Cell Counting Kit-8 was added for carrying out an MTT assay.
After 3 hours, a viable cell count was measured by measuring the absorbance at wavelength of 450 nm. For each of compounds 1 to 8 and the control, the viability was obtained from ‘(the viable cell count when 6-hydroxydopamine was added)/(the viable cell count when no 6-hydroxydopamine was added)’.
Compared with the control and compounds 7 and 8, it can be seen that the addition of any one of compounds 1 to 6 enhances the viability.

[3] = system: rats injected with 6-hydroxydopamine (6-OHDA); assay: Methamphetamine-induced rotation of rats injected with 6-OHDA into midbrain left substantia nigra; format: in vivo, rat; details: 1 mM compound injected simultaneously with 6 mM 6-OHDA into left substantia nigra; methamphetamine after 9 weeks
Procedure: In this example, compound 1, 5, or 8 was injected into rat midbrain left substantia nigra and the effect thereof was examined. • (1) Either 6 mM of 6-hydroxydopamine (6-OHDA) alone or mixtures of 6 mM of 6-OHDA and 1 mM of each compound was injected into the midbrain left substantia nigra (4.8 mm×1.8 mm, 7.8 mm depth) of rats (Wister rat, male, 250 g). Where the rat was injected with 6 mM of 6-hydroxydopamine (6-OHDA) in midbrain left substantia nigra, the right-side substantia nigra was intact but in the left-side oxidative stress induced the death of dopamine neurons, and the rat rotate in a clockwise direction due to the imbalanced amount of acting dopamine, showing a behavioral abnormality characteristic of Parkinson's disease patients.
After 9 weeks, the rats were injected with methamphetamine (Dainippon Pharma Co., Ltd.), which causes a dopamine release, leading to a release of large amount of dopamine from dopamine neurons into the striatum. Because of the imbalance in the amounts of released dopamine between the left and right substantia nigra the rats started to rotate in a clockwise direction. The rats were placed in a rotameter, and the number of rotations was measured. The total number of rotations over 60 minutes is shown in FIG. 14, and the number of rotations at every 5 minutes over time is shown in FIG. 15. […]

Row | SMILES | binding to DJ-1 protein (frequency change) (DJ-1 protein [1]) | dopaminergic neuronal death in left substantia nigra (TH staining) (dopamine neurons) | also measured
1 | CC1(C)OC2C(=O)O[C@@H](n3cnc4c(N)ncnc43)C2O1 (some centres unmarked) [compound 1] | bind to DJ-1 protein | neuronal death was considerably suppressed | Complex 1 activity (mitochondrial complex 1): Complex 1 activity was maintained; transition of DJ-1 protein to an oxidized form (DJ-1 protein [2]): suppressed the transition of DJ-1 protein to an oxidized form
2 | CS(=O)(=O)O[C@H]1CO[C@@H](Cn2cnc3c(N)ncnc32)C1O (some centres unmarked) [compound 2] | bind to DJ-1 protein |  | 
3 | CC(=O)O[C@H](CO)[C@H](O)C(O)Cn1cnc2c(N)ncnc21 (some centres unmarked) [compound 4] | bind to DJ-1 protein |  | 
4 | COc1ccc(CC(=O)NCCc2cc(OC)c3c(c2)OCO3)cc1OCc1ccccc1 [compound 5] |  | neuronal death was considerably suppressed | Complex 1 activity (mitochondrial complex 1): Complex 1 activity was maintained; transition of DJ-1 protein to an oxidized form (DJ-1 protein [2]): suppressed the transition of DJ-1 protein to an oxidized form
5 | NC(=O)C(CS(N)(=O)=O)NC(=O)C(Cc1ccccc1)NC(=O)CNC(=O)OCc1ccccc1 (centres unmarked) [compound 6] | bind to DJ-1 protein |  | 
6 | CC1(C)OC2C(O1)[C@@H](CO)O[C@H]2n1cnc2c(NC(=O)C(C)(C)C)ncnc21 (some centres unmarked) [compound 7] |  |  | viability (effect in suppressing cell death) (SH-SY5Y human neurons): did not have such effects
7 | COCO[C@@H](/C=C/C(=O)OCc1ccccc1)[C@@H](CCO[Si](C)(C)C(C)(C)C)C(Cc1ccccc1)Cc1ccccc1 [compound 8] |  | did not have such effect | effect on behavioral abnormality (number of rotations), in words [3]: did not show such effect; viability (effect in suppressing cell death) (SH-SY5Y human neurons): did not have such effects
